In the NIST ThermoML archive (doi:10.1016/j.tca.2011.01.019):
Several values for one entry are separate records, joined by “and”; a condition that tells them apart may be missing. Equal values may be shown once. Numbers after ± are expanded uncertainties.

Key:
[1] = 101 kPa, Liquid; for speed of sound: Linear variable-path acoustic interferometer; for mass density: Pycnometric method
[2] = xn = mol fraction of the nth substance listed; conditions: 101 kPa, Liquid; for speed of sound: Linear variable-path acoustic interferometer; for mass density: Pycnometric method

Cc1ccccc1N [2-methylaniline]
[1]
Conditions	mass density [kg/m3]	speed of sound [m/s]
303.15 K	990.1 ± 0.3	1579 ± 3
313.15 K	981.7 ± 0.4	1539 ± 3
323.15 K	973.3 ± 0.4	1501 ± 3

Cc1ccccc1N [2-methylaniline] + CC(C)OC(C)C
[2]
Conditions	mass density, 303.15 K [kg/m3]	mass density, 313.15 K [kg/m3]	mass density, 323.15 K [kg/m3]	speed of sound, 303.15 K [m/s]	speed of sound, 313.15 K [m/s]	speed of sound, 323.15 K [m/s]
x2 = 0	990.1 ± 0.3	981.7 ± 0.4	973.3 ± 0.4	1579 ± 3	1539 ± 3	1501 ± 3
x2 = 0.0717	968.9 ± 0.3	962.3 ± 0.4	955.7 ± 0.4	1530 ± 3	1491 ± 3	1457 ± 3
x2 = 0.1513	946.3 ± 0.3	940.3 ± 0.4	934.4 ± 0.4	1475 ± 3	1437 ± 3	1404 ± 3
x2 = 0.2389	922 ± 0.3	916.1 ± 0.3	910.4 ± 0.4	1415 ± 3	1378 ± 3	1343 ± 3
x2 = 0.3255	898.8 ± 0.3	892.6 ± 0.3	886.4 ± 0.4	1359 ± 3	1320 ± 3	1284 ± 2
x2 = 0.4206	873.5 ± 0.3	866.9 ± 0.3	860.2 ± 0.4	1299 ± 3	1259 ± 2	1224 ± 2
x2 = 0.5248	845.6 ± 0.3	838.8 ± 0.3	831.6 ± 0.4	1237 ± 2	1197 ± 2	1160 ± 2
x2 = 0.625	817.9 ± 0.3	811 ± 0.3	803.6 ± 0.3	1180 ± 2	1139 ± 2	1103 ± 2
x2 = 0.7415	784.9 ± 0.3	777.6 ± 0.3	770 ± 0.3	1116 ± 2	1074 ± 2	1038 ± 2
x2 = 0.866	749.3 ± 0.3	741 ± 0.3	732.8 ± 0.3	1049 ± 2	1007 ± 2	968 ± 2

C1CCOC1 [tetrahydrofuran]
[1]
Conditions	mass density [kg/m3]	speed of sound [m/s]
303.15 K	876.9 ± 0.3	1254 ± 2
313.15 K	865.7 ± 0.3	1207 ± 2
323.15 K	854.8 ± 0.3	1165 ± 2

CC(C)OC(C)C [diisopropyl ether]
[1]
Conditions	mass density	speed of sound [m/s]
303.15 K	712.9 ± 0.3 kg/m3	976 ± 2
313.15 K	702.5 ± 0.3 kg/m3 and 702.9 ± 0.3 kg/m3	932 ± 2
323.15 K	691.9 ± 0.3 kg/m3	889 ± 2

Cc1ccccc1N [2-methylaniline] + C1CCOC1
[2]
Conditions	mass density, 303.15 K [kg/m3]	mass density, 313.15 K [kg/m3]	mass density, 323.15 K [kg/m3]	speed of sound, 303.15 K [m/s]	speed of sound, 313.15 K [m/s]	speed of sound, 323.15 K [m/s]
x2 = 0	990.1 ± 0.3	981.7 ± 0.4	973.3 ± 0.4	1579 ± 3	1539 ± 3	1501 ± 3
x2 = 0.0828	984 ± 0.3	975.9 ± 0.4	968 ± 0.4	1559 ± 3	1519 ± 3	1482 ± 3
x2 = 0.1818	977 ± 0.3	969.2 ± 0.4	961.5 ± 0.4	1534 ± 3	1493 ± 3	1458 ± 3
x2 = 0.2807	969.9 ± 0.3	962.2 ± 0.4	954.6 ± 0.4	1508 ± 3	1467 ± 3	1431 ± 3
x2 = 0.3704	962.6 ± 0.3	954.9 ± 0.4	947.3 ± 0.4	1482 ± 3	1442 ± 3	1406 ± 3
x2 = 0.4652	953.7 ± 0.3	945.9 ± 0.4	938.2 ± 0.4	1455 ± 3	1414 ± 3	1377 ± 3
x2 = 0.5732	941.7 ± 0.3	933.8 ± 0.4	925.9 ± 0.4	1421 ± 3	1379 ± 3	1342 ± 3
x2 = 0.6764	928.4 ± 0.3	920.1 ± 0.3	911.9 ± 0.4	1382 ± 3	1341 ± 3	1305 ± 2
x2 = 0.7791	913.3 ± 0.3	904.7 ± 0.3	896 ± 0.4	1343 ± 3	1301 ± 2	1264 ± 2
x2 = 0.888	895.8 ± 0.3	886.4 ± 0.3	877 ± 0.4	1300 ± 2	1255 ± 2	1219 ± 2

Cc1cccc(N)c1 [3-methylaniline]
[1]
Conditions	mass density [kg/m3]	speed of sound [m/s]
303.15 K	980.8 ± 0.3	1567 ± 3
313.15 K	972.7 ± 0.4	1533 ± 3
323.15 K	964.6 ± 0.4	1492 ± 3

Cc1cccc(N)c1 [3-methylaniline] + C1CCOC1
[2]
Conditions	mass density, 303.15 K [kg/m3]	mass density, 313.15 K [kg/m3]	mass density, 323.15 K [kg/m3]	speed of sound, 303.15 K [m/s]	speed of sound, 313.15 K [m/s]	speed of sound, 323.15 K [m/s]
x2 = 0	980.8 ± 0.3	972.7 ± 0.4	964.6 ± 0.4	1567 ± 3	1533 ± 3	1492 ± 3
x2 = 0.0864	975.3 ± 0.3	968 ± 0.4	960.1 ± 0.4	1544 ± 3	1513 ± 3	1474 ± 3
x2 = 0.1853	969.2 ± 0.3	962.6 ± 0.4	955 ± 0.4	1522 ± 3	1488 ± 3	1451 ± 3
x2 = 0.2831	963 ± 0.3	956.4 ± 0.4	948.9 ± 0.4	1497 ± 3	1463 ± 3	1425 ± 3
x2 = 0.3776	956.4 ± 0.3	949.7 ± 0.4	941.9 ± 0.4	1472 ± 3	1436 ± 3	1398 ± 3
x2 = 0.4693	949 ± 0.3	942 ± 0.4	933.9 ± 0.4	1447 ± 3	1409 ± 3	1372 ± 3
x2 = 0.5689	939.3 ± 0.3	931.9 ± 0.4	923.6 ± 0.4	1416 ± 3	1375 ± 3	1339 ± 3
x2 = 0.6803	926.2 ± 0.3	918.4 ± 0.3	909.8 ± 0.4	1378 ± 3	1338 ± 3	1301 ± 2
x2 = 0.7808	912.4 ± 0.3	904.3 ± 0.3	895.3 ± 0.4	1341 ± 3	1300 ± 2	1261 ± 2
x2 = 0.8886	895.6 ± 0.3	886.8 ± 0.3	877.2 ± 0.4	1300 ± 2	1255 ± 2	1217 ± 2

CC(C)OC(C)C [diisopropyl ether] + Cc1ccccc1N
[2], x1 = 1
Conditions	mass density [kg/m3]	speed of sound [m/s]
303.15 K	712.9 ± 0.3	976 ± 2
313.15 K	702.5 ± 0.3	932 ± 2
323.15 K	691.9 ± 0.3	889 ± 2

Cc1cccc(N)c1 [3-methylaniline] + CC(C)OC(C)C
[2]
Conditions	mass density, 303.15 K [kg/m3]	mass density, 313.15 K [kg/m3]	mass density, 323.15 K [kg/m3]	speed of sound, 303.15 K [m/s]	speed of sound, 313.15 K [m/s]	speed of sound, 323.15 K [m/s]
x2 = 0	980.8 ± 0.3	972.7 ± 0.4	964.6 ± 0.4	1567 ± 3	1533 ± 3	1492 ± 3
x2 = 0.0743	961 ± 0.3	954.3 ± 0.4	946.9 ± 0.4	1515 ± 3	1482 ± 3	1443 ± 3
x2 = 0.1546	939.9 ± 0.3	934 ± 0.3	927 ± 0.4	1462 ± 3	1429 ± 3	1391 ± 3
x2 = 0.2421	917.2 ± 0.3	911.5 ± 0.3	904.6 ± 0.4	1404 ± 3	1371 ± 3	1334 ± 3
x2 = 0.3279	894.6 ± 0.3	888.9 ± 0.3	881.9 ± 0.4	1350 ± 3	1315 ± 3	1280 ± 2
x2 = 0.4275	868 ± 0.3	862.1 ± 0.3	855 ± 0.4	1289 ± 2	1254 ± 2	1218 ± 2
x2 = 0.53	840 ± 0.3	834 ± 0.3	826.9 ± 0.4	1230 ± 2	1193 ± 2	1158 ± 2
x2 = 0.6285	812.7 ± 0.3	806.4 ± 0.3	799.4 ± 0.3	1175 ± 2	1138 ± 2	1101 ± 2
x2 = 0.7424	781.2 ± 0.3	774.5 ± 0.3	767 ± 0.3	1113 ± 2	1075 ± 2	1036 ± 2
x2 = 0.8651	747.8 ± 0.3	740.1 ± 0.3	731.6 ± 0.3	1048 ± 2	1007 ± 2	966 ± 2

C1CCOC1 [tetrahydrofuran] + Cc1cccc(N)c1
[2], x1 = 1
Conditions	mass density [kg/m3]	speed of sound [m/s]
303.15 K	876.9 ± 0.3	1254 ± 2
313.15 K	865.7 ± 0.3	1207 ± 2
323.15 K	854.8 ± 0.3	1165 ± 2

C1CCOC1 [tetrahydrofuran] + Cc1ccccc1N
[2], x1 = 1
Conditions	mass density [kg/m3]	speed of sound [m/s]
303.15 K	876.9 ± 0.3	1254 ± 2
313.15 K	865.7 ± 0.3	1207 ± 2
323.15 K	854.8 ± 0.3	1165 ± 2

CC(C)OC(C)C [diisopropyl ether] + Cc1cccc(N)c1
[2], x1 = 1
Conditions	mass density [kg/m3]	speed of sound [m/s]
303.15 K	712.9 ± 0.3	976 ± 2
313.15 K	702.9 ± 0.3	932 ± 2
323.15 K	691.9 ± 0.3	889 ± 2
